This is an account of results in patent US20050095226A1, “Down-regulation of DNA repair to enhance sensitivity to p53-mediated suppression” (priority 1996, published 2005).

For assay [1], the system named is 9L rat glioblastoma cells. Put plainly: Cell viability assay (MTS) in 9L rat glioblastoma cells. The format is cell-based. The procedure:
(§1) T98G glioblastoma cells were obtained from ATCC and cultured at 37° C. 10% CO2 in Dulbecco's Modified Eagles Medium supplemented with 10% newborn calf serum. 9L rat glioblastoma cells were obtained from Carol Cruse (University of Colorado) and cultured at 37° C. in 10% CO2 in Dulbecco's Modified Eagles Medium supplemented with 10% fetal Calf serum. The T98G-LHCmjun clone (termed T98G mutant jun or T98G-mjun), as well as control empty vector modified clone (termed T98GLHCX) were obtained from Dr. Dan Mercola (Sidney Kimmel Cancer Center) and were cultured in the same way as were T98G cells except that 100 μg/ml hygromycin was added to the culture medium. The 98G-mjun is stably modified to express a dominant negative mutant of c-jun (the mutant was obtained by site-directed mutagenesis by M. Karin and colleagues and is described by Smeal et al. (1991). Mutant jun has ser→ala substitutions at positions 63 and 73, two sites of DNA damage-induced phosphorylation, and can therefore not be phosphorylated at these sites. 9LpCEPp53 (or 9LpCEP4, control) were cultured in the same way at 9L cells except that 50 μg/ml hygromycin was added to the medium.
Rat 9L glioblastoma cells express p53 mutated at codon 277 (J. Neuroonal. 19:259-268, 1994.) 9LpCEPp53 (or 9LpCEP4) were obtained by transducing 5×10^5 9L cells with 15 μG of pCEPp53 (or pCEP4) using Lipofectamine (GIBCO/BRL, Gaithersberg, Md.) following the manufacturer's instructions. Clones were selected in 50 μg/ml hygromycin and characterized for wild-type p53 expression by immunoprecipitation (immunoprecipitation procedure described in: Gjerset et al., Molec. Carcinog. 5:190-198, 1992) using the 1801 anti-p53 antibody specific for human p53 (p-Ab-2, Oncogene Science, Uniondale, N.Y.), and by the PG13 functional assay described above. pCEPp53 was derived by inserting the human wild-type p53 cDNA into the multicloning site of pCEP4.
(§2) Cells were infected when they were at 80% confluence with either 100 pfu per cell overnight in DMEM containing 2% heat-inactivated FBS (for T98G and clones derived from T98G) or at 50 pfu per cell for 2 hours (9L cells). The efficiency of infection was determined by staining a sample of the β-gal virus-infected cells at 48 hrs post-infection as described (Dannenerg and Saga, 1981).
(§3) Viability assays were performed in 96 wells plates 6-7 days after plating. Cells were plated at a starting cell number per well of 1000. Triplicate or quadruplicate wells were set up for each assay point. […] For cisplatin treatment, triplicate or quadruplicate wells were exposed for 1 hour to various concentrations of cisplatin (Platinol™), and then incubated in the absence of cisplatin for 7 days, during which time control (untreated) wells were in exponential phase growth. Viable cell number was based on the bioconversion of the tetrazolium compound, MTS, into formazan (Promega, Celltiter96™Aqeous), as determined by absorbance at […] using an ELISA reader. For 3-aminobenzamide (ABZ) treatment, triplicate or quadruplicate wells were treated with either 5 mM ABZ or 10 mM ABX. Fresh ABZ was added every two days and viability was scored as described above at 6 days. Assays involving the synthetic retinoid SR11220 were performed in the presence of charcoal-treated fetal bovine serum. Medium was replaced every two days with medium containing fresh retinoid.

Assay [2] concerns T98G parental cells. Description: PCR stop assay for DNA damage (2.7 Kb HPRT fragment) in T98G parental cells. It is filed as cell-based, human. Here is the method:
(§4) This assay has been described (Oshita and Saijo, 1994; Jannerwein and Eastman, 1991). The assay is based on the principle that every DNA lesion, including adducts produced by cisplatin, can potentially block the progression of the Taq polymerase and decrease the yield of a given PCR™ product. […] Furthermore, when whole cells are incubated with varying levels of cisplatin, the degree of inhibition of amplification of a specific PCR™ product from DNA purified from these cells, correlates closely with the amount of DNA damage (level of DNA platination) as measured by atomic adsorption (Jannerwein and Eastman, 1991). The following primers (used by Oshita and Saijo, 1994) which amplify a 2.7 Kb fragment of the human hypoxanthine phosphoribosyl transferase (HPRTase) gene were used:
(§5) As an internal control for the efficiency of the PCR™ reaction, a nested 5′ primer which amplifies a 150 bp fragment of the same gene was used:
At the cisplatin levels used to treat the cells, damage to the smaller fragment is undetectable. […] In some experiments, 3-aminobenzamide (10 mM), an inhibitor of ADP ribosylation and DNA repair (see Din et al., 1992) was added during the 6 hour recovery period. […] DNA was washed with 70% EtOH to remove salt, followed by 100% EtOH dried briefly, and resuspended at 1 mg/ml in sterile H2O. Quantitative PCR™ was performed in 50 μl aliquots using 0.5 μg DNA, 50 pmol of forward primer for 2.7 Kb fragment, 50 pmol reverse primer, and 5 pmol of forward primer for the 150 base fragment, 50 mM KCL, 10 nmM Tris pH 8.3, 1.5 mM MgCl2, […], 0.5 μl Tac polymerasse (Perkin Elmer), and 1 pmol radioactively end-labeled reverse primer (labeled with y-^32P-dATP). Amplification conditions were as follows: 1 cycle: 94° C., 1′30; 25 cycles: 94° (1 min)-57° (1 min)-70° (2′30″); 1 cycle:94° (1 min)-57° (1 min)-70° (7′). […] The gel was vacuum-dried for two hours onto filter paper and the PCR™-amplified 2.7 Kb and 150 bp bands were quantitated using an Ambis4000 Radioanalytic Imaging system (Ambis, Inc., San Diego, Calif.).

Assay [3] concerns T47D breast cancer cells. Description: Cell viability assay (MTS) in T47D breast cancer cells. The format is cell-based. The following applies: for cell viability: one hour cisplatin, various concentrations, 7 days post-infection; for viability: 7 days. The procedure: Cells were infected when they were at 80% confluence with either 100 pfu per cell overnight in DMEM containing 2% heat-inactivated FBS (for T98G and clones derived from T98G) or at 50 pfu per cell for 2 hours (9L cells).
as §3

Assay [4] deals with T98G glioblastoma cells. Description: Cell viability assay (MTS) in T98G glioblastoma cells. The format is cell-based. As to conditions: for cell viability: 7 days post-treatment. The procedure:
as §1, §2, §3

For assay [5], the system named is T98G-mutant jun cells. Put plainly: PCR stop assay for DNA damage (2.7 Kb HPRT fragment) in T98G-mutant jun cells. The format is cell-based, human. As to conditions: varying concentrations. Here is the method:
as §4, §5
At the cisplatin levels used to treat the cells, damage to the smaller fragment is undetectable. […] In some experiments, 3-aminobenzamide (10 mM), an inhibitor of ADP ribosylation and DNA repair (see Din et al., 1992) was added during the 6 hour recovery period. […] The gel was vacuum-dried for two hours onto filter paper and the PCR™-amplified 2.7 Kb and 150 bp bands were quantitated using an Ambis4000 Radioanalytic Imaging system (Ambis, Inc., San Diego, Calif.).

Entries after “also recorded” stand apart in the source; their conditions may differ.

Turning to `NC(=O)c1cccc(N)c1` [3-aminobenzamide], the viability entry in assay [1] (9L cells stably expressing human wild-type p53 (pCEPp53), 5 mM 3-aminobenzamide for 6 days) is recorded as “low viability”; in assay [1] (9L cells stably expressing human wild-type p53 (pCEPp53), 10 mM 3-aminobenzamide for 6 days), “even lower viability”. The growth inhibition entry in assay [1] (9L cells stably expressing only control vector pCEP4, both 5 mM and 10 mM 3-aminobenzamide, 6 days) is on record as “resistant to growth inhibition”. The “DNA damage (percentage of control PCR signal)” value in assay [2] (10 mM 3-aminobenzamide, six hours post treatment with varying concentrations of cisplatin) is “significant DNA damage”.

Take `N.N.[Cl][Pt][Cl]` [cisplatin]: the viability result in assay [1] (9L cells infected with p53 adenovirus, compared to βgal adenovirus, 50 μM cisplatin one day later, measured seven days after cisplatin) is reported as “significant decrease in viability”; in assay [3] (T47D cells infected with βgal adenovirus control, 10^−8 M SR11220, 10 μM cisplatin or combination), “not reduced significantly”; in assay [3] (p53 adenovirus infected T47D cells, 10 μM cisplatin, 1 hour exposure), “an even greater effect on the reduction in viability”. The cell viability result is given as “significantly reduced the viability” in assay [1] (9L cells stably modified with wild-type p53 vector pCEPp53, compared to control vector pCEP4, one hour cisplatin, various concentrations, 7 days post-treatment); “decreased with increasing doses of cisplatin” in assay [3] (T47D cells infected with wild-type p53 adenovirus, two days post-infection); “significantly more refractory” in assay [3] (control T47D cells infected with βgal-adenovirus); “reduced in a dose dependent manner” in assay [4] (T98G cells stably modified with wild-type p53 vector pLp53RNL, one hour cisplatin, increasing doses); “more resistant” in assay [4] (control T98G cells stably modified with vector only, pLNRL, one hour cisplatin). In addition, the “cell growth / viability” value in assay [4] (T98G cells infected with wild-type p53 adenovirus, one hour cisplatin, various concentrations, 7 days post-infection) is “growth suppression in a dose dependent manner”. For the same molecule, the growth rate result in assay [4] (T98G cells infected with βgal adenovirus, increasing levels of cisplatin, 7 days post-infection) is “slightly reduce growth rate”. Moreover, the “DNA damage (percentage of control PCR signal)” value in assay [2] (six hours after 1.5 hour cisplatin treatment, no 3-aminobenzamide) was “partially reduced; also recorded: no significant DNA damage remained”; in assay [2] (zero hours after 1.5 hour treatment with varying concentrations of cisplatin) it was “considerable DNA damage”; in assay [5] (zero hour after 1.5 hours cisplatin), “high levels of DNA damage”. In addition, in assay [5] (six hours after 1.5 hours cisplatin), the “repair of DNA damage” value is on record as “not able to be repaired”.
